Laboratory results taken from patent publication US12409171B2, “Pharmaceutically active pyrazolo-pyridone modulators of DCN1/2-mediated cullin neddylation” (UNIVERSITY OF KENTUCKY RESEARCH FOUNDATION, priority 2019, dated 2025).

Each molecule was assayed against DCN1 (Homo sapiens (Human), UniProt Q96GG9) (assay: TR-FRET binding assay (biotin-DCN1 / Ac-UBE2M12-AlexaFluor488)). Settings: mean ± SD (n); read-out: DCN1_TRFRET Mean EC50.
Chain of DCN1 (Q96GG9 whole entry): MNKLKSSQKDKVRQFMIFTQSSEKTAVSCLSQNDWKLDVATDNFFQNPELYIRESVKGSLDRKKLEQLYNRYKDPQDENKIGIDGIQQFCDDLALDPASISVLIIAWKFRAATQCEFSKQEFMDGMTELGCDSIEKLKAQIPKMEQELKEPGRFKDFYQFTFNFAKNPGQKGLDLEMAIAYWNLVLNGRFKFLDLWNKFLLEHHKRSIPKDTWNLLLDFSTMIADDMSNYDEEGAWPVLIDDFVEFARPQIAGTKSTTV
Procedure, shortened: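 Biotinylated DCN1 binding to Ac-UBE2M12-AlexaFluor488 read by TR-FRET; assay cocktail pre-incubated 1 h at room temperature before compounds added from DMSO stocks by pin transfer. IC50 is the mean of three replicates ± SD; compounds tested in triplicate or more.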
Work on `CCN1C(=O)[C@@H](NC(=O)c2cccc(C(F)(F)F)c2)[C@@H](c2ccc(F)cc2)c2c(CNS(C)(=O)=O)nn(-c3ccccc3)c21` [RG-0014140, N-[(4S,5S)-7-ethyl-4-(4-fluorophenyl)-3-(methanesulfonamidomethyl)-6-oxo-1-phenyl-1H,4H,5H,6H,7H-pyrazolo[3,4-b]pyridin-5-yl]-3-(trifluoromethyl)benzamide] yielded an EC50 of 94.7 ± 19.7 nM.
`CCN1C(=O)[C@@H](NC(=O)c2cccc(C(F)(F)F)c2)[C@@H](c2ccc(F)cc2)c2c(CN3CCNCC3)nn(-c3ccccc3)c21` [RG-0014141, N-[(4S,5S)-7-ethyl-4-(4-fluorophenyl)-6-oxo-1-phenyl-3-[(piperazin-1-yl)methyl]-1H,4H,5H,6H,7H-pyrazolo[3,4-b]pyridin-5-yl]-3-(trifluoromethyl)benzamide] gave an EC50 of 141 ± 7.56 nM.
For `CCN1C(=O)[C@@H](NC(=O)c2cccc(C(F)(F)F)c2)[C@@H](c2ccc(F)cc2)c2c(CNCCNC(=O)OC(C)(C)C)nn(-c3ccccc3)c21` [RG-0014142, tert-butyl N-[2-({[(4S,5S)-7-ethyl-4-(4-fluorophenyl)-6-oxo-1-phenyl-5-[3-(trifluoromethyl)benzamido]-1H,4H,5H,6H,7H-pyrazolo[3,4-b]pyridin-3-yl]methyl}amino)ethyl]carbamate], the EC50 was 116 ± 17.5 nM.
`CCN1C(=O)[C@@H](NC(=O)c2cccc(C(F)(F)F)c2)[C@@H](c2ccc(F)cc2)c2c(CN3CCC(C)CC3)nn(-c3ccccc3)c21` [RG-0014143, N-[(4S,5S)-7-ethyl-4-(4-fluorophenyl)-3-[(4-methylpiperidin-1-yl)methyl]-6-oxo-1-phenyl-1H,4H,5H,6H,7H-pyrazolo[3,4-b]pyridin-5-yl]-3-(trifluoromethyl)benzamide] was tested, and the EC50 was 82.7 ± 7.69 nM.
Work on `CCN1C(=O)[C@@H](NC(=O)c2cccc(C(F)(F)F)c2)[C@@H](c2ccc(F)cc2)c2c(CBr)nn(-c3ccccc3)c21` [RG-0014144, N-[(4S,5S)-3-(bromomethyl)-7-ethyl-4-(4-fluorophenyl)-6-oxo-1-phenyl-1H,4H,5H,6H,7H-pyrazolo[3,4-b]pyridin-5-yl]-3-(trifluoromethyl)benzamide] yielded an EC50 of 186 ± 32.6 nM.
Molecule `CCN1C(=O)[C@@H](NC(=O)c2cccc(C(F)(F)F)c2)[C@@H](c2ccc(F)cc2)c2c(CNCC(F)(F)F)nn(-c3ccccc3)c21` [RG-0014145, N-[(4S,5S)-7-ethyl-4-(4-fluorophenyl)-6-oxo-1-phenyl-3-{[(2,2,2-trifluoroethyl)amino]methyl}-1H,4H,5H,6H,7H-pyrazolo[3,4-b]pyridin-5-yl]-3-(trifluoromethyl)benzamide] has an EC50 of 161 ± 13.1 nM.
`CCN1C(=O)[C@@H](NC(=O)c2cccc(C(F)(F)F)c2)[C@@H](c2ccc(F)cc2)c2c(CN3CCC(F)(F)CC3)nn(-c3ccccc3)c21` [RG-0014146, N-[(4S,5S)-3-[(4,4-difluoropiperidin-1-yl)methyl]-7-ethyl-4-(4-fluorophenyl)-6-oxo-1-phenyl-1H,4H,5H,6H,7H-pyrazolo[3,4-b]pyridin-5-yl]-3-(trifluoromethyl)benzamide] showed an EC50 of 321 ± 27.3 nM.
For `CCN1C(=O)[C@@H](NC(=O)c2cccc(C(F)(F)F)c2)[C@@H](c2ccc(F)cc2)c2c(CN3CCC(F)CC3)nn(-c3ccccc3)c21` [RG-0014147, N-[(4S,5S)-7-ethyl-4-(4-fluorophenyl)-3-[(4-fluoropiperidin-1-yl)methyl]-6-oxo-1-phenyl-1H,4H,5H,6H,7H-pyrazolo[3,4-b]pyridin-5-yl]-3-(trifluoromethyl)benzamide], the EC50 was 112 ± 16 nM.
`CCN1C(=O)[C@@H](NC(=O)c2cccc(C(F)(F)F)c2)[C@@H](c2ccc(F)cc2)c2c(CNC(=O)CCOCCOCCOCCOCCNC(=O)CCCCC3SCC4NC(=O)NC43)nn(-c3ccccc3)c21` (stereo partly drawn) [RG-0014148, N-{[(4S,5S)-7-ethyl-4-(4-fluorophenyl)-6-oxo-1-phenyl-5-[3-(trifluoromethyl)benzamido]-1H,4H,5H,6H,7H-pyrazolo[3,4-b]pyridin-3-yl]methyl}-1-(5-{2-oxo-hexahydro-1H-thieno[3,4-d]imidazol-4-yl}pentanamido)-3,6,9,12-tetraoxapentadecan-15-amide] was tested, and the EC50 was 102 ± 15.9 nM.
In the case of `CCN1C(=O)[C@@H](NC(=O)c2cccc(C(F)(F)F)c2)[C@@H](c2ccc(F)cc2)c2c(CNCCN)nn(-c3ccccc3)c21` [RG-0014149, N-[(4S,5S)-3-{[(2-aminoethyl)amino]methyl}-7-ethyl-4-(4-fluorophenyl)-6-oxo-1-phenyl-1H,4H,5H,6H,7H-pyrazolo[3,4-b]pyridin-5-yl]-3-(trifluoromethyl)benzamide], the EC50 is reported as 126 ± 12.1 nM.
`CCN1C(=O)[C@@H](NC(=O)c2cccc(C(F)(F)F)c2)[C@@H](c2ccc(F)cc2)c2c(CN3CCN(CC(F)(F)F)CC3)nn(-c3ccccc3)c21` [RG-0014150, N-[(4S,5S)-7-ethyl-4-(4-fluorophenyl)-6-oxo-1-phenyl-3-{[4-(2,2,2-trifluoroethyl)piperazin-1-yl]methyl}-1H,4H,5H,6H,7H-pyrazolo[3,4-b]pyridin-5-yl]-3-(trifluoromethyl)benzamide] showed an EC50 of 173 ± 21.9 nM.
Molecule `CCN1C(=O)[C@@H](NC(=O)c2ccc3c(ccn3C)c2)[C@@H](c2ccc(F)cc2)c2c(C)nn(-c3ccccc3)c21` [RG-0014151, N-[(4S,5S)-7-ethyl-4-(4-fluorophenyl)-3-methyl-6-oxo-1-phenyl-1H,4H,5H,6H,7H-pyrazolo[3,4-b]pyridin-5-yl]-1-methyl-1H-indole-5-carboxamide] has an EC50 of 3230 ± 806 nM.
With `CCN1C(=O)[C@@H](NC(=O)c2cccc(C(F)(F)F)c2)[C@@H](c2ccc(F)cc2)c2c(CN3CCCC3)nn(-c3ccccc3)c21` [RG-0014154, N-[(4S,5S)-7-ethyl-4-(4-fluorophenyl)-6-oxo-1-phenyl-3-[(pyrrolidin-1-yl)methyl]-1H,4H,5H,6H,7H-pyrazolo[3,4-b]pyridin-5-yl]-3-(trifluoromethyl)benzamide] the EC50 was 83.5 ± 9.39 nM.
Molecule `CCN1C(=O)[C@@H](NC(=O)c2cccc(C(F)(F)F)c2)[C@@H](c2ccc(F)cc2)c2c(CNC(=O)CCCC[C@@H]3SC[C@@H]4NC(=O)N[C@@H]43)nn(-c3ccccc3)c21` [RG-0014155, N-[(4S,5S)-3-({5-[(3aS,4S,6aR)-2-oxo-hexahydro-1H-thieno[3,4-d]imidazol-4-yl]pentanamido}methyl)-7-ethyl-4-(4-fluorophenyl)-6-oxo-1-phenyl-1H,4H,5H,6H,7H-pyrazolo[3,4-b]pyridin-5-yl]-3-(trifluoromethyl)benzamide] has an EC50 of 123 ± 22.5 nM.
For `CC/C=C/C(=O)N[C@@H]1C(=O)N(CC)c2c(c(C)nn2-c2ccccc2)[C@@H]1c1ccc(F)cc1` [RG-0014157, (2E)-N-[(4S,5S)-7-ethyl-4-(4-fluorophenyl)-3-methyl-6-oxo-1-phenyl-1H,4H,5H,6H,7H-pyrazolo[3,4-b]pyridin-5-yl]pent-2-enamide], the EC50 was over 30700 nM.
In the case of `CCN1C(=O)[C@@H](NC(=O)c2ccc3ncsc3c2)[C@@H](c2ccc(F)cc2)c2c(C)nn(-c3ccccc3)c21` [RG-0014158, N-[(4S,5S)-7-ethyl-4-(4-fluorophenyl)-3-methyl-6-oxo-1-phenyl-1H,4H,5H,6H,7H-pyrazolo[3,4-b]pyridin-5-yl]-1,3-benzothiazole-6-carboxamide], the EC50 is reported as 6310 ± 465 nM.
Molecule `CCN1C(=O)[C@@H](NC(=O)c2cccc(C(F)(F)F)c2)[C@@H](c2ccc(F)cc2)c2c(CNC(=O)CCOCCOCCNC(=O)CCCC[C@@H]3SC[C@@H]4NC(=O)N[C@@H]43)nn(-c3ccccc3)c21` [RG-0014159, N-[(4S,5S)-3-({3-[2-(2-{5-[(3aS,4S,6aR)-2-oxo-hexahydro-1H-thieno[3,4-d]imidazol-4-yl]pentanamido}ethoxy)ethoxy]propanamido}methyl)-7-ethyl-4-(4-fluorophenyl)-6-oxo-1-phenyl-1H,4H,5H,6H,7H-pyrazolo[3,4-b]pyridin-5-yl]-3-(trifluoromethyl)benzamide] has an EC50 of 89.6 ± 10.9 nM.
Work on `CCN1C(=O)[C@@H](NC(=O)c2cccc(C(F)(F)F)c2)[C@@H](c2ccc(F)cc2)c2c(CNS(=O)(=O)NC(=O)OC(C)(C)C)nn(-c3ccccc3)c21` [RG-0014160, tert-butyl N-({[(4S,5S)-7-ethyl-4-(4-fluorophenyl)-6-oxo-1-phenyl-5-[3-(trifluoromethyl)benzamido]-1H,4H,5H,6H,7H-pyrazolo[3,4-b]pyridin-3-yl]methyl}sulfamoyl)carbamate] yielded an EC50 of 194 ± 19.9 nM.
`CCN1C(=O)[C@@H](NC(=O)c2cccc(C(F)(F)F)c2)[C@@H](c2ccc(F)cc2)c2c(CNS(N)(=O)=O)nn(-c3ccccc3)c21` [RG-0014161, N-[(4S,5S)-7-ethyl-4-(4-fluorophenyl)-6-oxo-1-phenyl-3-[(sulfamoylamino)methyl]-1H,4H,5H,6H,7H-pyrazolo[3,4-b]pyridin-5-yl]-3-(trifluoromethyl)benzamide] was tested, and the EC50 was 145 ± 26.2 nM.
In the case of `Cc1nn(-c2ccccc2)c2c1[C@H](c1ccc(F)cc1)[C@H](NC(=O)c1cccc(C(F)(F)F)c1)C(=O)N2CCNC(=O)OC(C)(C)C` [RG-0014162, tert-butyl N-{2-[(4S,5S)-4-(4-fluorophenyl)-3-methyl-6-oxo-1-phenyl-5-[3-(trifluoromethyl)benzamido]-1H,4H,5H,6H,7H-pyrazolo[3,4-b]pyridin-7-yl]ethyl}carbamate], the EC50 is reported as over 13600 nM.
`Cc1nn(-c2ccccc2)c2c1[C@H](c1ccc(F)cc1)[C@H](NC(=O)c1cccc(C(F)(F)F)c1)C(=O)N2CCO[Si](C)(C)C(C)(C)C` [RG-0014164, N-[(4S,5S)-7-{2-[(tert-butyldimethylsilyl)oxy]ethyl}-4-(4-fluorophenyl)-3-methyl-6-oxo-1-phenyl-1H,4H,5H,6H,7H-pyrazolo[3,4-b]pyridin-5-yl]-3-(trifluoromethyl)benzamide] gave an EC50 of over 36500 nM.
With `CCN1C(=O)[C@@H](NC(=O)c2cccc(C)c2F)[C@@H](c2ccc(F)cc2)c2c(C)nn(-c3ccccc3)c21` [RG-0014165, N-[(4S,5S)-7-ethyl-4-(4-fluorophenyl)-3-methyl-6-oxo-1-phenyl-1H,4H,5H,6H,7H-pyrazolo[3,4-b]pyridin-5-yl]-2-fluoro-3-methylbenzamide] the EC50 was 541 ± 68.1 nM.
With `CCN1C(=O)[C@@H](NC(=O)c2cccc(C(C)C)c2)[C@@H](c2ccc(F)cc2)c2c(C)nn(-c3ccccc3)c21` [RG-0014166, N-[(4S,5S)-7-ethyl-4-(4-fluorophenyl)-3-methyl-6-oxo-1-phenyl-1H,4H,5H,6H,7H-pyrazolo[3,4-b]pyridin-5-yl]-3-(propan-2-yl)benzamide] the EC50 was 473 ± 70.7 nM.
